In test [1] the target is T1, acyl-CoA:cholesterol acyltransferase (ACAT) (Oryctolagus cuniculus, UniProt G1SFD9).
T1 construct: in a tissue preparation containing rabbit intestinal microsomes; from tissue; host or cells: rabbit intestine, microsomes
T1 sequence (G1SFD9 1-524): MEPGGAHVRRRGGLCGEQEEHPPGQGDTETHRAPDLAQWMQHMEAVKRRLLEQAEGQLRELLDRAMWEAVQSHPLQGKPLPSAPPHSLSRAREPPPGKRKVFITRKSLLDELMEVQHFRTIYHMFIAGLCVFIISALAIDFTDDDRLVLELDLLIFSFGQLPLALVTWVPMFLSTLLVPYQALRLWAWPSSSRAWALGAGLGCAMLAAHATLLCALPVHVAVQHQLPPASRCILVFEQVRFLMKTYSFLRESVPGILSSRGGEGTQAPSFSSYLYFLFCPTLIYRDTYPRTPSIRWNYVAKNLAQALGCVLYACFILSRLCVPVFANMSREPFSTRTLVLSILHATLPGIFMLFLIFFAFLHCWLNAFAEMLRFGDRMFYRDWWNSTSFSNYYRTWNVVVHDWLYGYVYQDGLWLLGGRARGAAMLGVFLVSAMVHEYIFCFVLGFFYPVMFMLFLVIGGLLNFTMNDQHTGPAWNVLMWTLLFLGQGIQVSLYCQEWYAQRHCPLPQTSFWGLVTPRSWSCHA
Description: In vitro ACAT inhibition (IAI): formation of radiolabeled cholesterol oleate from radiolabeled oleic acid in rabbit intestinal microsomes. It is filed as biochemical. The conditions noted are these: inhibition of acylation of cholesterol by oleic acid. An excerpt: As shown by the data presented below in Table 1, the compounds of the present invention are potent inhibitors of the enzyme acyl-CoA:cholesterolacyltransferase (ACAT), and are thus effective in inhibiting the esterification and transport of cholesterol across the intestinal cell wall. The compounds of the present invention are thus useful in pharmaceutical formulations for the treatment of hypercholesterolemia or atherosclerosis. The ability of representative compounds of the present invention to inhibit ACAT was measured using an in vitro test more fully described in F. J. Field and R. G. Salone, Biochemica et Biophysica 712:557-570 (1982). The test assesses the ability of a test compound to inhibit the acylation of cholesterol by oleic acid by measuring the amount of radiolabeled cholesterol oleate formed from radiolabeled oleic acid in a tissue preparation containing rabbit intestinal microsomes.

Test [2] in a line: In vivo screen APCC: blood cholesterol in rats fed a high fat, high cholesterol diet with 0.5% cholic acid. Also on record: species or system male Sprague-Dawley rats. As to conditions: 16 h, rat, 30 mg/kg unless otherwise noted, dosed at 4 PM, high cholesterol diet overnight, blood sampled at 8 AM, read-out: APCC (% .increment.TC). An excerpt: In one in vivo screen designated APCC, male Sprague-Dawley rats (200 to 225 g) were randomly divided into treatment groups and dosed at 4 PM with either vehicle (CMC/Tween) or suspensions of compounds in vehicle. The normal chow diet was then replaced with a high fat, high cholesterol diet with 0.5% cholic acid. The rats consumed this diet ad libitum during the night and were sacrificed at 8 AM to obtain blood samples for cholesterol analysis using standard procedures. Statistical differences between mean cholesterol values for the same vehicle were determined using analysis of variance followed by Fisher's least significant test. The compounds were dosed at 30 mg/kg unless otherwise noted.

Each structure is given as a SMILES string. pIC50: −log10 of the molar value.

For twelve compounds, IC50 and change in vivo results are on record in patent US5254589A, “Sulfonyl urea and carbamate ACAT inhibitors” (priority 1991, dated 1993).

One may read the pIC50 as the IC50 on a negative log10 scale, so that one unit is a factor of ten. Lower therefore signals a high IC50. In the case of `CCCCCCCCCCCCCC(C)S(=O)(=O)NC(=O)Nc1c(C(C)C)cccc1C(C)C` (stereo not shown) [Example 1, N-[2,6-Bis(1-methylethyl)phenyl]-N'-(2-pentadecylsulfonyl)urea], in test [1], the pIC50 is 5.99. Moreover, the change in vivo at 30 mg/kg in test [2] is -76%.

`CCCCCCCCCCCCCCS(=O)(=O)NC(=O)Nc1c(C(C)C)cccc1C(C)C` [Example 2, N-[2,6-Bis(1-methylethyl)phenyl]-N'-(tetradecylsulfonyl)urea] had a pIC50 in test [1] of 6.08. Moreover, the change in vivo at 30 mg/kg in test [2] is -56%. The compound `CCCCCCCCCCCCCCS(=O)(=O)N(C)C(=O)Nc1c(C(C)C)cccc1C(C)C` [Example 3, N-[2,6-Bis(1-methylethyl)phenyl]-N'-methyl-N'-(tetradecylsulfonyl)urea] gave a pIC50 in test [1] of under 5.30. Besides, the change in vivo at 30 mg/kg in test [2] was -34%. Take `CCCCCCCCCCCCCCS(=O)(=O)N(Cc1ccccc1)C(=O)Nc1c(C(C)C)cccc1C(C)C` [Example 4]: the pIC50 in test [1] was 6.29. For the compound `CCCCCCCCS(=O)(=O)NC(=O)Nc1c(C(C)C)cccc1C(C)C` [Example 5, N-[2,6-Bis(1-methylethyl)phenyl]-N'-(octylsulfonyl)urea], the pIC50 in test [1] is under 5.30. In test [1], `CCCCCCCCCCCCS(=O)(=O)NC(=O)Nc1c(C(C)C)cccc1C(C)C` [Example 6, N-[2,6-Bis(1-methylethyl)phenyl]-N'-(dodecylsulfonyl)urea] showed a negative-log IC50 (pIC50) of 5.92. Besides, the change in vivo at 30 mg/kg in test [2] is -63%. As for `CCCCCCCCCCCCCCCCS(=O)(=O)NC(=O)Nc1c(C(C)C)cccc1C(C)C` [Example 7, N-[2,6-Bis(1-methylethyl)phenyl]-N'-(hexadecylsulfonyl)urea], in test [1], the pIC50 was 5.90. The change in vivo at 30 mg/kg in test [2] was -64%. `CCCCCCCCCCS(=O)(=O)NC(=O)Nc1c(C(C)C)cccc1C(C)C` [Example 8, N-[2,6-Bis(1-methylethyl)phenyl]-N'-(decylsulfonyl)urea] showed a negative logarithm of the IC50 (pIC50) in test [1] of 4.89. Further, the change in vivo at 30 mg/kg in test [2] is -31%.

In turn, `CCCCCCCCCCCCCCS(=O)(=O)NC(=O)Nc1ccc(F)cc1F` [Example 10, N-(2,4-Difluorophenyl)-N'-(tetradecylsulfonyl)urea] showed a pIC50 in test [1] of 5.30. The change in vivo at 30 mg/kg in test [2] is -14%. `CCCCCCCCCCCCS(=O)(=O)N(C)C(=O)Nc1c(C(C)C)cccc1C(C)C` [Example 11] showed a pIC50 in test [1] of 7.07. Moreover, the change in vivo at 30 mg/kg in test [2] is -49%. `CCCCCCCCCCCCCC(c1ccccc1)S(=O)(=O)NC(=O)Nc1c(C(C)C)cccc1C(C)C` (stereo not shown) [Example 14, N-[2,6-Bis(1-methylethyl)phenyl]-N'-(1-phenyl-1-tetradecylsulfonyl)urea] gave a pIC50 in test [1] of 5.70. In test [2], the change in vivo at 30 mg/kg was -72%. For `CCCCCCCCC(c1ccccc1)S(=O)(=O)NC(=O)Nc1c(C(C)C)cccc1C(C)C` (stereo not shown) [Example 15, N-[2,6-Bis(1-methylethyl)phenyl]-N'-(1-phenyl-1-nonylsulfonyl)urea] the same measures were 5.04 and -75%.
